# Results from patent US20170056380A1, “Systems, Methods, Techniques, and Compounds in Research and Treatment of Portal Hypertension and other Conditions” (priority 2014, published 2017).
# Assays:
# [1] = tested on: protein kinase G (PKG); assay: Phospho-VASP immunoblotting for PKG activity in stellate cells alone or cocultured with sinusoidal endothelial cells; format: cell-based, rat; settings: coculture, L-NAME 1 μM 4 h, then cicletanine 100 nM
# Description: For coculture experiments, freshly isolated stellate cells and freshly isolated sinusoidal endothelial cells were isolated separately and mixed together on collagen-coated plates and cultured for 5 days. Sinusoidal endothelial cells were plated at a density of 200,000 cells/cm2, and stellate cells were at a density of 65,000 cells/cm2.
# (§1) Immunoblotting, Immunoblotting was performed by using specified primary antibodies, including anti-eNOS antibody (1:1,000; BD Transduction Laboratories, San Jose, Calif.), anti-phospho-eNOS-Ser^1177 (1:1,000; BD Transduction Laboratories or Cell Signaling Technology), anti-phospho-Akt, anti-Akt (Cell Signaling Technology, Beverly, Mass.), and horseradish peroxidase-conjugated secondary antibody. Specific signals were visualized using enhanced chemiluminescence as per the manufacturer's instructions and were scanned and quantitated with standard software.
# [2] = target: T1, eNOS (Rattus norvegicus, UniProt Q62600); assay: NOS activity assay (conversion of L-[3H]arginine to L-[3H]citrulline) in sinusoidal endothelial cell lysates; format: cell-based; settings: cicletanine 100 nM plus inhibitor
# T1 construct: endogenous in cells; host or cells: primary liver sinusoidal endothelial cells from male Sprague-Dawley rats (normal or bile-duct-ligated)
# T1 sequence (Q62600 1-1202): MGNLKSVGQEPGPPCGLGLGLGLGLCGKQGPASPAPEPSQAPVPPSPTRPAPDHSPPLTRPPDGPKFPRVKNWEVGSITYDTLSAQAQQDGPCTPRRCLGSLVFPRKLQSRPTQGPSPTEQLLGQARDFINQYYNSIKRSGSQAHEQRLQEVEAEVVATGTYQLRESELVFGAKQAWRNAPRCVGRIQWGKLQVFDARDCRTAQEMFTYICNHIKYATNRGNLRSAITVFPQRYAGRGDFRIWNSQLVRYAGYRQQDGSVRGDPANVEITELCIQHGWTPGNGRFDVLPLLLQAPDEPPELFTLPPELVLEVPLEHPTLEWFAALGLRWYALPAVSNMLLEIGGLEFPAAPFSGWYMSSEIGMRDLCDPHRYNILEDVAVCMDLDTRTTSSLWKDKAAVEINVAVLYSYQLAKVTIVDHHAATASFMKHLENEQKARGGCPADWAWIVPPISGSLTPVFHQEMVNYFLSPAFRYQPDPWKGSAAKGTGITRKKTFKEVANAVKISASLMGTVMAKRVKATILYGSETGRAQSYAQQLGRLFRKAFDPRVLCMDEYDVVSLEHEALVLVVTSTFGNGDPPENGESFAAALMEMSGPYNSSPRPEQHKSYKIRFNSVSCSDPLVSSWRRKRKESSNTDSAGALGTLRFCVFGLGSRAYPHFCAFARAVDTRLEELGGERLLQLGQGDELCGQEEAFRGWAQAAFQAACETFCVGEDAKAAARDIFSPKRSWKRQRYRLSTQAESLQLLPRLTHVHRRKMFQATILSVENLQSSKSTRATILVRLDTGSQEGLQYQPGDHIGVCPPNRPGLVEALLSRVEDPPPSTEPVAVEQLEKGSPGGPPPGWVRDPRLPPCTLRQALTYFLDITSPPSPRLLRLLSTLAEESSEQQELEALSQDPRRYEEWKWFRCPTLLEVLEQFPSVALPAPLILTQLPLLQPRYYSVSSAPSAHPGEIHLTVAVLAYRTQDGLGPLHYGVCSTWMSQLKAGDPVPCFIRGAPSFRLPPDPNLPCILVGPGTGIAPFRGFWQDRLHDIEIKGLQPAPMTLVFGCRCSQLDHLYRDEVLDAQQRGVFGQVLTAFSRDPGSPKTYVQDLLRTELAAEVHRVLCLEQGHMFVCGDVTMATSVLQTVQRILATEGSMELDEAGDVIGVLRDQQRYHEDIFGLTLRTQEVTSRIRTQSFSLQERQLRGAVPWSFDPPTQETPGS
# Description: (§2) Cell isolation and culture. Sinusoidal endothelial cells were isolated from male Sprague-Dawley rats (450-500 g) (Harlan, Indianapolis, Ind.). In brief, after in situ perfusion of the liver with 20 mg/100 mg pronase (Roche Molecular Biochemicals, Indianapolis, Ind.), followed by collagenase (Worthington Biochemical, Lakewood, N.J.), dispersed cell suspensions were removed from a layered discontinuous density gradient of 8.2 and 15.6% Accudenz (Accurate Chemical and Scientific, Westbury, N.Y.), further purified by centrifugal elutriation (18 ml/min flow), and were grown in medium containing 20% serum (10% horse/calf). The purity of endothelial cells was documented by their uptake of fluorescently labeled di-l-acetoacetylated low-density lipoprotein as described (21). Only primary sinusoidal endothelial isolates of >95% purity were used for study. Experiments were performed with cells frorrr a minimum three different isolations (for all experiments).
# (§3) Animal model of liver injury and portal hypedension. Liver injury and portal hypertension were induced by performing bile duct ligation in 450- to 500-gram male retired breeder Sprague-Dawley rats as described in Liu and 20- to 25-gram male BALB/c mice. Briefly, bile duct ligation was performed by surgical isolation and ligation of the common bile duct. This model creates a portal-based fibrogenic response and portal hypertension 10-14 days after surgery (Liu). For study of injured sinusoidal endothelial cells, we used the rat model of bile duct ligation (10-14 days postsurgery); for in vivo study (primarily to conserve the use of active compound), we used the mouse model of bile duct ligation (examining portal pressure 4 wk postsurgery). In sham-operated rats or mice, laparotomy without isolation and section of the bile duct was performed. Studies were approved by the local Institutional Animal Care and Use Committees. Portal pressure measurement. Portal hypertension was induced in male BALB/c mice by bile duct ligation as above. Cicletanine (5 mg·kg^−1·day^−1) or vehicle was given by gavage as a single daily dose for 10 days before portal pressure measurement as described in Liue. In brief, mice were anesthetized, and an intravenous catheter (Becton Dickinson Vascular Access, Sandy, Utah) was introduced in the portal vein and secured with a silk tie. A calibrated low-pressure transducer (Digi-Med, Louisville, Ky.) was connected to the portal vein catheter, and portal pressure was recorded continuously using the Digi-Med Integrator 200 System (Digi-bled).
# NOS activity assay. NOS activity from sinusoidal endothelial cell lysates was assessed by measuring the conversion of L-[3H]arginine to L-[3H]citrulline as described (6) per the manufacturer's instructions (Cayman Chemical). In brief, triplicate samples of cell lysates were incubated with a reaction buffer containing 3 pmol of L-[3H]arginine (45 Ci/mmol), 0-50 μM arginine, 1 mM NADPH, 100 nM calmodulin (CaM), 2 mM CaCl2, and 30 μM BH4 in a volume of 50-100 μl at room temperature for 30 min and at 37° C. for an additional 30 min in the presence and absence of 1 mM NG-nitro-L-arginine methyl ester (L-NAME). […] Radiolabeled counts per minute of generated L-citrulline were measured and used to determine L-NAME-inhibitable NOS activity (thus, each experiment included total counts and background counts). […] The reductase activities of sinusoidal endothelial cells with or without cicletanine exposure were determined using the NADPH-dependent cytochrome c assay. […]
# [3] = tested on: NO production in sinusoidal endothelial cells; assay: NO measurement (nitrite in conditioned medium of sinusoidal endothelial cells); format: cell-based, rat; settings: for effect on cicletanine-induced NO production: PD-98059 10 μM 30 min, then cicletanine 100 nM 2 h
# Description: as §2, §3
# NO measurement. To assess NO production, we analyzed the release of nitrite, the stable breakdown product of NO, using a nitrite/nitrate assay kit (Cayman Chemicals, Ann Arbor, Mich.), following the manufacturer's instructions. Briefly, conditioned medium from sinusoidal endothelial cells with or without cicletanine treatment were loaded on a 96-well plate and mixed with both enzyme cofactor and nitrate reductase. After incubation at room temperature for 3 h, 100 μl Griess reagent mix were added to each well. After 10 more minutes at room temperature, the absorbance of each well was determined on a microplate reader at 540 nm, and the nitrite concentrations were deduced from a standard curve.
# [4] = tested on: eNOS; assay: eNOS phosphorylation (Ser1177) and total eNOS by immunoblotting in sinusoidal endothelial cells; format: cell-based, rat; settings: PD-98059 10 μM 30 min, then cicletanine 100 nM 2 h
# Description: as §2, §1, §3
compound,measurement,setting,value
"COC(=O)[C@@H](N)CCCNC(=N)N[N+](=O)[O-] [L-NAME, NG-nitro-L-arginine methyl ester]",effect on cicletanine-stimulated VASP phosphorylation,[1],inhibited
same,effect on cicletanine-induced eNOS activity,[2],inhibitable
same,effect on nitrite production,"[3]; L-NAME 1 μM preexposure 4 h, then cicletanine 2 h",inhibited
COc1cccc(-c2cc(=O)c3ccccc3o2)c1N [PD-98059],effect on cicletanine-induced eNOS phosphorylation,[4],blocked
same,effect on cicletanine-induced eNOS phosphorylation,[4]; listed as PD-098059,abolished
same,effect on cicletanine-induced NO production,[3],blocked
same,effect on cicletanine-induced NO production,[3]; listed as PD-098059,abolished
Cc1ncc2c(c1O)COC2c1ccc(Cl)cc1 (centres unmarked) [S-cicletanine],"production of nitrite, (+) isomer compared with (−) isomer",[3]; comparison of isomers,more effective than the (−) isomer of cicletanine
